Test system: patients with prior myocardial infarction (CARE study)
Experiment: CARE: association of SNPs with pravastatin treatment in cardiovascular events prevention (logistic regression, odds ratio pravastatin vs placebo by genotype; Table 8)
Assay type: in vivo, human
Conditions: for Odds ratio pravastatin vs placebo: All Patients
Text: In order to identify genetic markers associated with acute coronary events (e.g. MI, stroke, unstable angina, congestive heart failure, etc.) or response to statin treatment for the prevention of coronary events, samples from the Cholesterol and Recurrent Events (CARE) study (a randomized multicentral double-blinded trial on secondary prevention of acute coronary events with pravastatin) (Sacks et al., 1991, Am. J. Cardiol. 68: 1436-1446) were genotyped. A well-documented myocardial infarction (MI) was one of the enrollment criteria for entry into the CARE study. Patients were enrolled in the CARE trial from 80 participating study centers. […] Patients were randomized to receive either 40 mg of pravastatin once daily or a matching placebo. The primary endpoint of the trial was death from coronary heart disease and the median duration of follow-up was 5.0 years (range, 4.0 to 6.2 years). […] Secondary endpoints of other related cardiovascular or metabolic disease events, and changes in clinical variables were also recorded in pravastatin-treated and placebo groups. All individuals included in the study had signed a written informed consent form and the study protocol was approved by the respective Institutional Review Boards (IRBs).
For genotyping SNPs in CARE patient samples, DNA was extracted from blood samples using conventional DNA extraction methods such as the QIA-amp kit from Qiagen. Genotypes were obtained on an ABI PRISM® 7900HT Sequence Detection PCR system (Applied Biosystems, Foster City, Calif.) by kinetic allele-specific PCR, similar to the method described by Germer et al. (Germer S., Holland M. J., Higuchi R. 2000, Genome Res. 10: 258-266).
Statistical analysis for association of SNPs with pravastatin treatment in cardiovascular events prevention (Table 8) was carried out using an overall logistic regression model that included an intercept, a parameter for the effect of a genotype containing two rare alleles versus a genotype containing no rare alleles, a parameter for the effect of a genotype containing one rare allele versus a genotype containing no rare alleles, a parameter for the effect of use of pravastatin versus the use of placebo, and parameters for the interaction effects between SNP genotypes and pravastatin use. The test of the overall model is a chi-square test with two degrees of freedom for analyses containing all three genotypes, and one degree of freedom for analyses containing two genotypes.
Effect sizes were estimated through odds ratios (pravastatin group versus placebo) for carriers of each genotype (groups of 0, 1, and 2 minor allele carriers). The effect was considered to be significant if p-value for testing whether any of the interactions between SNP genotypes and pravastatin use were <0.05. […] Odds ratios less than one indicate that the specific SNP allele has a protective effect and odds ratios greater than one indicate that the specific SNP allele has an adverse effect.

[1] = TLR5 hCV15871020, All Patients, 2 Rare Alleles, Prava arm
[2] = TLR6 hCV1180648, All Patients, 0 Rare Alleles, Prava arm
[3] = TLR6 hCV1180648, All Patients, 1 Rare Allele, Prava arm
[4] = TLR6 hCV1180648, All Patients, 2 Rare Alleles, Prava arm
[5] = TNF hCV7514879, All Patients, 0 Rare Alleles, Prava arm
[6] = TNF hCV7514879, All Patients, 1 Rare Allele, Prava arm
[7] = TNF hCV7514879, All Patients, 2 Rare Alleles, Prava arm
[8] = VEGF hCV791476, All Patients, 0 Rare Alleles, Prava arm
[9] = VEGF hCV791476, All Patients, 1 Rare Allele, Prava arm
[10] = VEGF hCV791476, All Patients, 2 Rare Alleles, Prava arm

CC[C@H](C)C(=O)O[C@H]1C[C@H](O)C=C2C=C[C@H](C)[C@H](CC[C@@H](O)C[C@@H](O)CC(=O)O)[C@H]21 [pravastatin]
Fatal/Non-fatal Atherosclerotic CV Disease, n/total (%) [1]: (17.6%) | Hosp. for Cardiovascular Disease, n/total (%) [1]: (14.7%) | Total Cardiovascular Disease Events, n/total (%) [1]: (17.6%) | Total Coronary Heart Disease Events, n/total (%) [1]: (11.8%) | Odds ratio pravastatin vs placebo (TLR5 hCV15871020, Fatal/Non-fatal Atherosclerotic CV Disease, 0 rare alleles): 0.84 | Odds ratio pravastatin vs placebo (TLR5 hCV15871020, Fatal/Non-fatal Atherosclerotic CV Disease, 1 rare allele): 0.68 | Odds ratio pravastatin vs placebo (TLR5 hCV15871020, Fatal/Non-fatal Atherosclerotic CV Disease, 2 rare alleles): 0.14 | Odds ratio pravastatin vs placebo (TLR5 hCV15871020, Hosp. for Cardiovascular Disease, 0 rare alleles): 0.81 | Odds ratio pravastatin vs placebo (TLR5 hCV15871020, Hosp. for Cardiovascular Disease, 1 rare allele): 0.72 | Odds ratio pravastatin vs placebo (TLR5 hCV15871020, Hosp. for Cardiovascular Disease, 2 rare alleles): 0.09 | Odds ratio pravastatin vs placebo (TLR5 hCV15871020, Total Cardiovascular Disease Events, 0 rare alleles): 0.81 | Odds ratio pravastatin vs placebo (TLR5 hCV15871020, Total Cardiovascular Disease Events, 1 rare allele): 0.70 | Odds ratio pravastatin vs placebo (TLR5 hCV15871020, Total Cardiovascular Disease Events, 2 rare alleles): 0.10 | Odds ratio pravastatin vs placebo (TLR5 hCV15871020, Total Coronary Heart Disease Events, 0 rare alleles): 0.86 | Odds ratio pravastatin vs placebo (TLR5 hCV15871020, Total Coronary Heart Disease Events, 1 rare allele): 0.64 | Odds ratio pravastatin vs placebo (TLR5 hCV15871020, Total Coronary Heart Disease Events, 2 rare alleles): 0.10 | Cardiovascular Mortality, n/total (%) [2]: (3.5%) | Fatal Atherosclerotic Cardiovascular Disease, n/total (%) [2]: (3.5%) | Fatal Coronary Heart Disease, n/total (%) [2]: (3.3%) | Cardiovascular Mortality, n/total (%) [3]: (2.5%) | Fatal Atherosclerotic Cardiovascular Disease, n/total (%) [3]: (2.5%) | Fatal Coronary Heart Disease, n/total (%) [3]: (1.9%) | Cardiovascular Mortality, n/total (%) [4]: (6.9%) | Fatal Atherosclerotic Cardiovascular Disease, n/total (%) [4]: (6.5%) | Fatal Coronary Heart Disease, n/total (%) [4]: (6.2%) | Fatal/Non-fatal MI (def & prob), n/total (%) [5]: (10.5%) | Hosp. for Cardiovascular Disease, n/total (%) [5]: (40.9%) | Total Cardiovascular Disease Events, n/total (%) [5]: (42.4%) | Total Mortality, n/total (%) [5]: (6.0%) | Fatal/Non-fatal MI (def & prob), n/total (%) [6]: (7.7%) | Hosp. for Cardiovascular Disease, n/total (%) [6]: (38.9%) | Total Cardiovascular Disease Events, n/total (%) [6]: (39.4%) | Total Mortality, n/total (%) [6]: (4.7%) | Fatal/Non-fatal MI (def & prob), n/total (%) [7]: (7.1%) | Hosp. for Cardiovascular Disease, n/total (%) [7]: (35.7%) | Total Cardiovascular Disease Events, n/total (%) [7]: (35.7%) | Total Mortality, n/total (%) [7]: (3.6%) | Odds ratio pravastatin vs placebo (TNF hCV7514879, Fatal/Non-fatal MI (def & prob), 0 rare alleles): 0.80 | Odds ratio pravastatin vs placebo (TNF hCV7514879, Fatal/Non-fatal MI (def & prob), 1 rare allele): 0.44 | Odds ratio pravastatin vs placebo (TNF hCV7514879, Fatal/Non-fatal MI (def & prob), 2 rare alleles): 0.25 | Odds ratio pravastatin vs placebo (TNF hCV7514879, Hosp. for Cardiovascular Disease, 0 rare alleles): 0.79 | Odds ratio pravastatin vs placebo (TNF hCV7514879, Hosp. for Cardiovascular Disease, 1 rare allele): 0.76 | Odds ratio pravastatin vs placebo (TNF hCV7514879, Hosp. for Cardiovascular Disease, 2 rare alleles): 0.20 | Odds ratio pravastatin vs placebo (TNF hCV7514879, Total Cardiovascular Disease Events, 0 rare alleles): 0.79 | Odds ratio pravastatin vs placebo (TNF hCV7514879, Total Cardiovascular Disease Events, 1 rare allele): 0.73 | Odds ratio pravastatin vs placebo (TNF hCV7514879, Total Cardiovascular Disease Events, 2 rare alleles): 0.20 | Odds ratio pravastatin vs placebo (TNF hCV7514879, Total Mortality, 0 rare alleles): 1.11 | Odds ratio pravastatin vs placebo (TNF hCV7514879, Total Mortality, 1 rare allele): 0.57 | Odds ratio pravastatin vs placebo (TNF hCV7514879, Total Mortality, 2 rare alleles): 0.19 | Cardiovascular Mortality, n/total (%) [8]: (4.2%) | Fatal Atherosclerotic Cardiovascular Disease, n/total (%) [8]: (4.1%) | Cardiovascular Mortality, n/total (%) [9]: (2.4%) | Fatal Atherosclerotic Cardiovascular Disease, n/total (%) [9]: (2.4%) | Cardiovascular Mortality, n/total (%) [10]: (2.0%) | Fatal Atherosclerotic Cardiovascular Disease, n/total (%) [10]: (2.0%) | odds ratio, pravastatin group vs control group, adverse coronary event (hCV2741051, one rare allele): 0.43 | odds ratio, stroke in the pravastatin treated group (hCV2741051, one rare allele): 0.21 | odds ratio, pravastatin group vs control group, adverse coronary event (hCV2741051, two rare alleles): 0.26 | odds ratio, stroke in the pravastatin treated group (hCV2741051, two rare alleles): 0.23
